Measurements from patent publication US4400387A, “Indolizine derivatives and uses in therapeutics” (S. A. Labaz-Sanofi N.V., priority 1979, dated 1983).

How the values were obtained:
[1] = target: T1, adenosine deaminase obtained from calf intestine (Bos taurus, UniProt P56658); assay: Inhibition of the action of adenosine deaminase in vitro (decrease in absorbance at 265 nm); format: biochemical; settings: pH 7.4, 30° C.
T1 construct: purchased
T1 sequence (P56658 1-363): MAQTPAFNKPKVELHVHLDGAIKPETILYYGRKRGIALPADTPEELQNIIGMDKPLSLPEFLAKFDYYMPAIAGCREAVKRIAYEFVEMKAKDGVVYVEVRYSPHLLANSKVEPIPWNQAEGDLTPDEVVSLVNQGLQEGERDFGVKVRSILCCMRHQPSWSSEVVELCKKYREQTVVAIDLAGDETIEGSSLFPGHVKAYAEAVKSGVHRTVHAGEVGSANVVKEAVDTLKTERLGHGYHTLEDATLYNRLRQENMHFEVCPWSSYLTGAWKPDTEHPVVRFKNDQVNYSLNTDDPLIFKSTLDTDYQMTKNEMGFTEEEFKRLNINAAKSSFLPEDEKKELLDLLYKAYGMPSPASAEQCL
Procedure: This test was performed with adenosine deaminase obtained from calf intestine.
(§1) The experimental procedure described hereunder was used:
In the absorption cell the following solutions were introduced:
2.7 ml of a 0.1 molar phosphate buffer solution (pH=7.4)
0.3 ml of a 10^-4 or 5.10^-4 molar solution of adenosine in the phosphate buffer solution (final concentration in adenosine: 10^-5 or 5.10^-5 mol) 0.01 ml of a 3.10^-3 molar ethanolic solution of the compound to be studied (about 10 milliunits)
The contents of the absorption cell were allowed to incubate for 2 minutes and then the enzymatic reaction was started by adding 0.03 ml of a commercial adenosine deaminase solution having a known concentration in enzyme. The reaction was performed at 30° C. and followed by spectrophotometric recording of the decrease in absorbance at 265 nm due to the transformation of adenosine into inosine by means of adenosine deaminase. This enzymatic reaction can be represented by the following equation: [formula]
The same measurements were performed with a control solution containing all the ingredients referred to above except the compound being studied. Curves were then plotted representing the decrease in absorbance in comparison with time obtained on the one hand with the solution containing the inhibitor and on the other with the control solution.
The slope of both curves was measured and expressed in the number of mols of inosine formed in one minute. After that, the percent of inhibition of the activity of adenosine deaminase provoked by a compound of the invention was calculated.

[2] = Acute toxicity tests in mice; format: in vivo; settings: 20 mg/kg by intravenous route
Procedure: Acute toxicity tests were performed in mice with compounds of the invention.

[3] = target: T1, adenosine deaminase obtained from calf intestine; assay: Inhibition of the action of adenosine deaminase in vitro (decrease in absorbance at 265 nm); format: biochemical; settings: compound at a concentration of 10^-6 M
[4] = target: T2, adenosine deaminase in ascites cells (Krebs II) (Mus musculus, UniProt P03958); assay: Inhibition of adenosine deamination in intact ascites cells (14C adenosine); format: cell-based; settings: 14C adenosine 5.10^-5 M, read-out: concentration at which deamination of adenosine by ascites cells was 50% inhibited (converted)
T2 construct: tested in intact cells by incubating ascites cells (Krebs II); endogenous in cells; host or cells: Krebs II ascites cells
T2 sequence (P03958 1-352): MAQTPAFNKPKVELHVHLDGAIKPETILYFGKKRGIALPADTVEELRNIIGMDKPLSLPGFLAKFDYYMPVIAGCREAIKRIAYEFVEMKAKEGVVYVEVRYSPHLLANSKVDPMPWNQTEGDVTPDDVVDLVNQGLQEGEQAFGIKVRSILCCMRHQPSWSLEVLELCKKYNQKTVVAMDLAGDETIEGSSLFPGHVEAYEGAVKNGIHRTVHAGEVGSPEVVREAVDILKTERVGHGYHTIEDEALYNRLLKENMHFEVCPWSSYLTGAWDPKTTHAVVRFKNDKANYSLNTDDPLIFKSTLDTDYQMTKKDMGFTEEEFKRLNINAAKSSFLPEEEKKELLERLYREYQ
Procedure: The inhibition of the action of adenosine deaminase by these two above-cited compounds has also been tested in intact cells by incubating ascites cells (Krebs II) in the presence of ^14 C adenosine at a concentration of 5.10^-5 M and by measuring the formation of inosine and hypoxanthine ^14 C. The deamination of adenosine due to the ascites cells was 50% inhibited in the presence of 2.10^-6 M of 1-bromo-2-phenyl-3-(3-bromo-4-hydroxy-benzoyl)-indolizine and of 10^-6 M of 1-bromo-2-(4-fluoro-phenyl)-3-(3-bromo-4-hydroxy-benzoyl)-indolizine.

[5] = Uricosuric action in humans after a single oral dose; format: in vivo; settings: single oral dose 300 mg
Procedure: The uricosuric action was determined in humans after a single dose of 300 mg of 2-ethyl-3-(3,5-dibromo-4-hydroxy-benzoyl)-indolizine by oral route.

[6] = target: T3, xanthine oxidase found in milk (Bos taurus, UniProt P80457); assay: Inhibition of the action of xanthine oxidase in vitro (U.V. spectrophotometry, formation of uric acid from hypoxanthine); format: biochemical; settings: compound at 10^-5 M; hypoxanthine substrate, pH 7.4, 37° C.
T3 construct: purchased
T3 sequence (P80457 whole entry): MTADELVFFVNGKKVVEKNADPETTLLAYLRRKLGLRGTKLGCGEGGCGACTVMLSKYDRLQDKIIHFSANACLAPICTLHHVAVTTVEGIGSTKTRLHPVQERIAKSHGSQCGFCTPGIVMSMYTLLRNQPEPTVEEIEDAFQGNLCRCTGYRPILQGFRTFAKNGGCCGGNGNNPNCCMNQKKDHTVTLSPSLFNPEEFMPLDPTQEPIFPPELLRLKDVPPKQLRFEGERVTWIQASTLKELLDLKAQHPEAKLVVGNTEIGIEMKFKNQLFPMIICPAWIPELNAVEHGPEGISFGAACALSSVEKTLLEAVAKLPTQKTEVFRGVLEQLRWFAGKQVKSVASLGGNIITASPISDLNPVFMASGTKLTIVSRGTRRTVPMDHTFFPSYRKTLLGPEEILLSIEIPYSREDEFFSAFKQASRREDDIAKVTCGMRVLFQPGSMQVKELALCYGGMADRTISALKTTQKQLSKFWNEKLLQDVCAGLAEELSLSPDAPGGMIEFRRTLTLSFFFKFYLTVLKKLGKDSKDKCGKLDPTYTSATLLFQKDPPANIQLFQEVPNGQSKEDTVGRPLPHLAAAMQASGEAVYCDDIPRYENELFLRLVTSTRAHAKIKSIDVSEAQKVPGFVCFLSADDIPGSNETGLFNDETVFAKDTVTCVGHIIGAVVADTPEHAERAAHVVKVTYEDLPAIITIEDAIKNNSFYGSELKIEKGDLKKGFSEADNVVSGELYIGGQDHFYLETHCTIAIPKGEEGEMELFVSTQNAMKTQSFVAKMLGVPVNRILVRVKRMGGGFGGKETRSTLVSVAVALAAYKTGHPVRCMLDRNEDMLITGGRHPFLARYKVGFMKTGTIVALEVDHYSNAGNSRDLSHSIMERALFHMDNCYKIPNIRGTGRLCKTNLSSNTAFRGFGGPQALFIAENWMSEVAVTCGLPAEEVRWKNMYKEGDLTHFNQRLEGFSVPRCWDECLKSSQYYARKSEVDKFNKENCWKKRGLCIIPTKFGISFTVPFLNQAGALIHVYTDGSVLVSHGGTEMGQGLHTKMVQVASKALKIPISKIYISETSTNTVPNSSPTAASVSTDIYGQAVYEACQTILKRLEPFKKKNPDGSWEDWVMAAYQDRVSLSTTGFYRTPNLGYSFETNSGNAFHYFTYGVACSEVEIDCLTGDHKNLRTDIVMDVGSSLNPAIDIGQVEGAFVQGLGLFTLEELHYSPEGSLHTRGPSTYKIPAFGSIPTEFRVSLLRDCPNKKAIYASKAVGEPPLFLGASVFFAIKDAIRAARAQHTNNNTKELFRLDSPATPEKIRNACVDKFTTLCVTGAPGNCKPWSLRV
Procedure: This trial was performed with xanthine oxidase found in milk. The activity of the enzymatic preparation was measured by following the formation of uric acid starting from hypoxanthine in the presence of oxygen and of a phosphate buffer solution.
as §1
In the absorption cell, the following solutions were introduced:
1.5 ml of a 0.1 molar phosphate buffer solution (pH=7.4) saturated with oxygen.
0.3 ml of a 1 m molar solution of ethylene diamine tetraacetate.
0.01 ml of a commercial xanthine oxidase solution having a known concentration in enzyme.
0.01 ml of a 3.10^-3 molar ethanolic solution of the compound to be tested.
The contents of the absorption cell were allowed to incubate for 2 minutes and then the enzymatic reaction was started by adding 0.3 ml of a 10^-3 molar solution of hypoxanthine to the absorption cell. The reaction was followed by spectrophotometric recording of the oxidation rate of hypoxanthine at 293 nm and at 37° C. The optical density was automatically registered. The same measurements were performed with a control solution containing all the ingredients referred to above except the compound being tested.
In this way, a curve representing the variation in optical density in comparison with time was obtained with the solution containing the inhibitor on the one hand and devoid of inhibitor on the other. The slope of both curves was measured and expressed in the number of mols of uric acid formed in one minute. Thus, it was possible to compare the values obtained and calculate, in percent, the inhibition of the activity of xanthine oxidase provoked by a compound of the invention.

[7] = target: T3, xanthine oxidase found in milk; assay: as above; format: biochemical; settings: compound at a concentration of 10^-6 M
HSV-1 (KOS) = assay: Herpetic skin lesions and mortality of nu/nu mice inoculated with HSV-1 (KOS), topical Ara-A and/or compound; format: in vivo; settings: topical 1% in dimethylsulfoxide, 4 times daily days 0-4
Procedure: This test was carried out in order to determine the effects of adenine arabinoside (Ara-A) and compounds of the invention on the incidence of herpetic skin lesions and mortality of nu/nu mice inoculated with HSV-1 (KOS). Athymic nude (nu/nu) mice, 20 to 25 days old, were inoculated intracutaneously with HSV-1 (KOS) at about 10^4.5 PFU (plaque-forming units) per mouse. Ara-A and/or a compound of the invention were applied topically at 1% in dimethylsulfoxide, 4 times daily on days 0, 1, 2, 3 and 4. The number of mice with epidermal lesion (necrosis of at least 5 to 10 mm long) per total number of mice alive was registered.

Compound: O=C(c1ccc(O)c(Br)c1)c1c(-c2ccc(F)cc2)c(Br)c2ccccn12 [4-Fluoro-phenyl Br Br H, 1-Bromo-2-(4-fluoro-phenyl)-3-(3-bromo-4-hydroxy-benzoyl)-indolizine]
- Inhibition of the action of adenosine deaminase in vitro (in %) At 5.10^-5 M adenosine [1]: 94%
- Inhibition of the action of adenosine deaminase in vitro (in %) At 10^-5 M adenosine [1]: 100%
- deaths after 14 days [2]: on death was registered
- inhibition at 1 µM [3]: 86%
- IC50 [4]: 1 µM

Compound: CCc1cc2ccccn2c1C(=O)c1cc(Br)c(O)c(Br)c1 [Ethyl H Br Br, 2-Ethyl-3-(3,5-dibromo-4-hydroxy-benzoyl)-indolizine]
- Tmax ([5]; human, plasma, read-out: time of highest plasmatic level): 5 h
- mean increase of urinary excretion of uric acid in 24 hours ([5]; 24 hours): 22%
- lowering of uricemia ([5]; by the 5th hour): 9%
- increase of urinary excretion of uric acid ([5]; period between 12th and 24th hour): 40%
- inhibition at 10 µM [6]: 98%

Compound: CC(C)c1cc2ccccn2c1C(=O)c1cc(Br)c(O)c(Br)c1 [Isopropyl H Br Br, 2-Isopropyl-3-(3,5-dibromo-4-hydroxy-benzoyl)-indolizine]
- inhibition at 1 µM [7]: 84%
- inhibition at 10 µM [6]: 99%

Compound: CC(C)c1cc2ccccn2c1C(=O)c1cc(Cl)c(O)c(Cl)c1 [Isopropyl H Cl Cl, 2-Isopropyl-3-(3,5-dichloro-4-hydroxy-benzoyl)-indolizine]
- Inhibition of the action of adenosine deaminase in vitro (in %) At 5.10^-5 M adenosine [1]: 76%
- inhibition at 10 µM [6]: 96%

Compound: CC(C)c1cc2ccccn2c1C(=O)c1ccc(O)c(Br)c1 [Isopropyl H H Br, 2-Isopropyl-3-(3-bromo-4-hydroxy-benzoyl)-indolizine]
- inhibition at 10 µM [6]: 94%

Compound: CC(C)c1cc2ccccn2c1C(=O)c1ccc(O)c(Cl)c1 [Isopropyl H H Cl, 2-Isopropyl-3-(3-chloro-4-hydroxy-benzoyl)-indolizine]
- inhibition at 10 µM [6]: 88%

Compound: Cc1c(Br)c2ccccn2c1C(=O)c1cc(Cl)c(O)c(Cl)c1 [Methyl Br Cl Cl, 1-Bromo-2-methyl-3-(3,5-dichloro-4-hydroxy-benzoyl)-indolizine]
- inhibition at 10 µM [6]: 46%

Compound: Cc1c(Br)c2ccccn2c1C(=O)c1ccc(O)c(Cl)c1 [Methyl Br Cl H, 1-Bromo-2-methyl-3-(3-chloro-4-hydroxy-benzoyl)-indolizine]
- inhibition at 10 µM [6]: 44%

Compound: Cc1cc2ccccn2c1C(=O)c1cc(Br)c(O)c(Br)c1 [Methyl H Br Br, 2-Methyl-3-(3,5-dibromo-4-hydroxybenzoyl)-indolizine]
- inhibition at 10 µM [6]: 91%

Compound: Cc1cc2ccccn2c1C(=O)c1cc(Cl)c(O)c(Cl)c1 [Methyl H Cl Cl, 2-Methyl-3-(3,5-dichloro-4-hydroxy-benzoyl)-indolizine]
- inhibition at 10 µM [6]: 84%

Compound: Cc1cc2ccccn2c1C(=O)c1ccc(O)c(Br)c1 [Methyl H H Br, 2-Methyl-3-(3-bromo-4-hydroxy-benzoyl)-indolizine]
- inhibition at 10 µM [6]: 74%

Compound: O=C(c1cc(Br)c(O)c(Br)c1)c1c(-c2ccccc2)c(Br)c2ccccn12 [Phenyl Br Br Br, 1-Bromo-2-phenyl-3-(3,5-dibromo-4-hydroxy-benzoyl)-indolizine]
- Inhibition of the action of adenosine deaminase in vitro (in %) At 5.10^-5 M adenosine [1]: 22%
- Inhibition of the action of adenosine deaminase in vitro (in %) At 10^-5 M adenosine [1]: 53%
- inhibition at 10 µM [6]: 48%

Compound: O=C(c1ccc(O)c(Br)c1)c1c(-c2ccccc2)c(Br)c2ccccn12 [Phenyl Br Br H, 1-Bromo-2-phenyl-3-(3-bromo-4-hydroxy-benzoyl)-indolizine]
- effect on the antiviral (anti-herpetic) activity of adenine arabinoside (Ara-A) (HSV-1 (KOS)): potentiates the antiviral activity of adenine arabinoside
- Inhibition of the action of adenosine deaminase in vitro (in %) At 5.10^-5 M adenosine [1]: 88%
- Inhibition of the action of adenosine deaminase in vitro (in %) At 10^-5 M adenosine [1]: 100%
- deaths after 14 days [2]: on death was registered
- inhibition at 1 µM [3]: 80%
- IC50 [4]: 2 µM

Compound: CCCc1c(Br)c2ccccn2c1C(=O)c1cc(Br)c(O)c(Br)c1 [n-Propyl Br Br Br, 1-Bromo-2-n-propyl-3-(3,5-dibromo-4-hydroxy-benzoyl)-indolizine]
- inhibition at 10 µM [6]: 95%

Compound: CCCc1c(Br)c2ccccn2c1C(=O)c1ccc(O)c(Br)c1 [n-Propyl Br Br H, 1-Bromo-2-n-propyl-3-(3-bromo-4-hydroxy-benzoyl)-indolizine]
- inhibition at 10 µM [6]: 97%

Compound: CCCc1c(Br)c2ccccn2c1C(=O)c1ccc(O)c(Cl)c1 [n-Propyl Br H Cl, 1-Bromo-2-n-propyl-3-(3-chloro-4-hydroxy-benzoyl)-indolizine]
- inhibition at 10 µM [6]: 84%
